According to US10947196B2, “Beta adrenergic agonist and methods of using the same” (CURASEN THERAPEUTICS, INC., priority 2019, dated 2021):
Read-outs that look alike come from different tables or passages of the source.

How the values were obtained:
Type in all cases: cell-based
[1] = biological target: β1-adrenergic receptor (Homo sapiens (Human), UniProt P08588); assay: cAMP Gs dynamic HTRF assay, β1 expressing CHO cells; settings: B1-AR
Method in brief: (§1)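 Intracellular cAMP quantified by Eu-donor/d2-acceptor HTRF after 30 min compound exposure at 37° C in stimulation buffer with IBMX. Concentrations ran 10 μM top, 5-fold steps, 10 points. Cell lines: 1321N1 astrocytoma and CHO expressing β1 or β2; EC50 via four-parameter fit, relative efficacy against isoproterenol.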

[2] = biological target: β2 adrenergic receptor (Homo sapiens (Human), UniProt P07550); assay: cAMP Gs dynamic HTRF assay, β2 expressing CHO cells; settings: B2-AR
β2 adrenergic receptor, sequence (P07550 whole entry, species assumed): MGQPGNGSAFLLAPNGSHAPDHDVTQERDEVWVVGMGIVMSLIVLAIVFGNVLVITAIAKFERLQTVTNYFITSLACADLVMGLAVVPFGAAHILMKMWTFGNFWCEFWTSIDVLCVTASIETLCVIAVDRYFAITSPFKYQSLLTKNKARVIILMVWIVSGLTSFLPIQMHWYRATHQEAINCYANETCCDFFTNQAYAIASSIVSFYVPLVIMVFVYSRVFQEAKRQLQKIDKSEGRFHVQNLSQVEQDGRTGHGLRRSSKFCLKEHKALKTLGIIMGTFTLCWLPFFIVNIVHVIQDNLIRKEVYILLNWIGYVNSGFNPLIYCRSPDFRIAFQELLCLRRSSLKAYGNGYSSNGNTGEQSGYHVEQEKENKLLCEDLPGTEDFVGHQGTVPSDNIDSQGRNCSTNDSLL
Method in brief: as §1

[3] = biological target: β2 adrenergic receptors in human astrocytoma cells (1321N1) (Homo sapiens (Human), UniProt P07550); assay: cAMP HTRF assay in human astrocytoma cells (1321N1); settings: Endogenous receptor, 1321N1 cells
β2 adrenergic receptors in human astrocytoma cells (1321N1), sequence (P07550 whole entry): as the sequence (P07550 whole entry, species assumed) above
Procedure: cAMP homogeneous time-resolved fluorescence (HTRF). Compound efficacy was determined using the cAMP Gs dynamic HTRF assay (Cisbio, catalog #62AM4PEC) largely following the manufacturer's instructions, also detailed below.
Compound preparation. […] Standard serial dilution curves were 10-point, 5-fold dilutions starting from a highest concentration of 10 μM. […] Assay plates were centrifuged at 500×g for 10 seconds. Compounds and IBMX were prepared at 2× final dose to compensate for addition of cells.
Cell preparation. 1× stimulation buffer, washing PBS (Dulbecco's phosphate-buffered saline, −Mg −Ca; Caisson Labs, catalog #PBL01), assay PBS (Dulbecco's phosphate-buffered saline, +Mg, +Ca; Caisson Labs, catalog #PBL02) and Versene (0.02% EDTA disodium salt solution in PBS without calcium or magnesium; Caisson Labs, catalog #EDL01) were pre-warmed to 37° C. Cells expressing beta-adrenergic receptor were washed in washing PBS to remove growth medium and then released from the surface by incubating with Versene for 5-10 minutes at 37° C. Cells were harvested using assay PBS, counted manually by hemocytometer or by an automated cell counter, pelleted by centrifugation (200×g, 5 minutes) and resuspended in 37° C. 1× stimulation buffer to a final density of 1.5×10^6 cells/mL. 5 μL of the suspended cell solution (7500 cell total) were added to all wells of the 384 well assay plate, the assay plate was covered with an Axygen® plate seal (Corning PCR-SP) and incubated in a humidified 37° C. environment supplemented with 5% CO2 for 30 minutes.
HTRF reagent addition, reading and data analysis. After 30 minutes of cell stimulation with test compound, the assay plates were centrifuged at 500×g for 10 seconds, and incubation was stopped with the addition of 5 μL cAMP-D2 acceptor, diluted 1:21 in detection and lysis buffer 2 (Cisbio 62CL2FDF) was added to all cells. Subsequently, 5 μL Anti-cAMP-Eu Donor, diluted 1:21 in detection and lysis buffer 2, was added to cells. Plates were sealed and reactions gently ‘vortexed’ at 900 rpm on a Heidolph Titramax 1000 for at least 30 minutes at room temperature. Plates were centrifuged again at 500×g for 10 seconds, and HTRF was measured using a Tecan Spark plate reader at 50 flashes per well. […] Potency estimates (EC50) were derived from the four-parameter nonlinear regression of the concentration-effect curve and an estimate of relative efficacy was determined by comparing the magnitude of the test compound HTRF signal window (min−max dose) with the signal window of the full agonist control, isoproterenol.

[4] = biological target: B3-AR (Homo sapiens (Human), UniProt P13945); assay: cAMP potency assay, B3-AR expressing CHO-K1 cells
B3-AR, sequence (P13945 whole entry, species assumed): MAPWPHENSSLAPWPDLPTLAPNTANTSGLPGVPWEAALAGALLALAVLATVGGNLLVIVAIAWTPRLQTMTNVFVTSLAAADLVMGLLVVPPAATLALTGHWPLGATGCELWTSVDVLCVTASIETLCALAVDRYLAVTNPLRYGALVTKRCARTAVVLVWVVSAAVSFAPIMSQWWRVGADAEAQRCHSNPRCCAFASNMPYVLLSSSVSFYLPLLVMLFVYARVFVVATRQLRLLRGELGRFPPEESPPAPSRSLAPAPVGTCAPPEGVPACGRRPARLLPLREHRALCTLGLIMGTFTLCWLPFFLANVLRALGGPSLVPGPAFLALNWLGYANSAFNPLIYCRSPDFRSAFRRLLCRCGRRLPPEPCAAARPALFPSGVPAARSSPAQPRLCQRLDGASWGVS

[5] = CHO-K1 (HitHunter), read-out: Average pEC50 [Receptor subtype: B1-AR, Cell type: CHO-K1 (HitHunter)] (converted)
[6] = CHO-K cells, read-out: Average EC50 [Receptor subtype: B1-AR, Cell type: CHO-K]
[7] = CHO-K1 (HitHunter), read-out: Average pEC50 [Receptor subtype: B2-AR, Cell type: CHO-K1 (HitHunter)] (converted)
[8] = CHO-K cells, read-out: Average EC50 [Receptor subtype: B2-AR, Cell type: CHO-K]
[9] = read-out: Average pEC50 [Receptor subtype: Endogenous, Cell type: 1321N1] (converted)
[10] = read-out: Average pEC50 [Receptor subtype: B3-AR, Cell type: CHO-K1] (converted)
[11] = read-out: Average EC50 [Receptor subtype: Endogenous, Cell type: 1321N1]
[12] = read-out: Average EC50 [Receptor subtype: B3-AR, Cell type: CHO-K1]

β1-adrenergic receptor, sequence (P08588 whole entry, species assumed): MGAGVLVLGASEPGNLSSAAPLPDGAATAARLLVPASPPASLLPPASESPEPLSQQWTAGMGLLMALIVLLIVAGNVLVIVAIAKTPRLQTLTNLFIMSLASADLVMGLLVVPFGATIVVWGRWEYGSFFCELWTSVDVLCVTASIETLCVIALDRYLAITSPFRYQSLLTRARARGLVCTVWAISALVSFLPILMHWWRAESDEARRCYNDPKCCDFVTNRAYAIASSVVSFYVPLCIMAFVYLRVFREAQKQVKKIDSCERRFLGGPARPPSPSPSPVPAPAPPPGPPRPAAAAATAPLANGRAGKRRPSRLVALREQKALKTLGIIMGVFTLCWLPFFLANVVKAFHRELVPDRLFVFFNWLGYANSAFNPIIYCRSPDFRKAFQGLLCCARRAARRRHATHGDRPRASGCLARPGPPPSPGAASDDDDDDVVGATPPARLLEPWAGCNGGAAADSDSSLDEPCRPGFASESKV

Compound	EC50 [1, 5]	EC50 [1, 6]	EC50 [2, 7]	EC50 [2, 8]	EC50 [3, 9]	EC50 [4, 10]	Average pEC50 [Receptor subtype: Endogenous; Cell type: 1321N1] [3]	EC50 [3, 11]	Average pEC50 [Receptor subtype: B3-AR; Cell type: CHO-K1] [4]	EC50 [4, 12]	Average pEC50 [Receptor subtype: B1-AR; Cell type: CHO-K1 (HitHunter)] ([1]; CHO-K1 (HitHunter))
Cc1ccc([C@H](O)CNC(C)(C)C)nc1C#N [Compound 03-9]	0.01 to 0.1 µM	0.01 to 0.1 µM	< 0.01 µM	< 0.01 µM	0.01 to 0.1 µM	0.1 to 1 µM					
CC(C)NC[C@H](O)c1cccc(C2CC2)n1 [Compound 03-10]	0.01 to 0.1 µM	0.01 to 0.1 µM	< 0.01 µM	< 0.01 µM			B (B = 8-7)	0.01 to 0.1 µM	D (D < 6)	> 1 µM	
CC1(NC[C@H](O)c2cccc(C(F)(F)F)n2)CCC1 [Compound 03-11]	0.01 to 0.1 µM	0.01 to 0.1 µM	< 0.01 µM	< 0.01 µM	0.1 to 1 µM	> 1 µM					
CC1(NC[C@H](O)c2cccc(C(F)(F)F)n2)CC1 [Compound 03-14]	0.01 to 0.1 µM	0.01 to 0.1 µM	0.01 to 0.1 µM	0.01 to 0.1 µM	0.1 to 1 µM	> 1 µM					
COc1ccc(C[C@@H](C)NC[C@H](O)c2cccc(C(F)(F)F)n2)cc1 [Compound 03-15]	< 0.01 µM	< 0.01 µM	< 0.01 µM	< 0.01 µM	< 0.01 µM	0.1 to 1 µM					
Cc1cc([C@@H](O)CNC(C)(C)C)nc(C(F)(F)F)c1 [Compound 03-19]	0.1 to 1 µM	0.1 to 1 µM	0.01 to 0.1 µM	0.01 to 0.1 µM	0.1 to 1 µM	> 1 µM					
O[C@@H](CNC1Cc2ccccc2C1)c1cccc(C(F)(F)F)n1 [Compound 03-21]	0.1 to 1 µM	0.1 to 1 µM	0.01 to 0.1 µM	0.01 to 0.1 µM	0.01 to 0.1 µM	> 1 µM					
O[C@@H](CNC1CCC1)c1cccc(C(F)(F)F)n1 [Compound 03-33]		< 0.01 µM	< 0.01 µM	< 0.01 µM	0.01 to 0.1 µM	> 1 µM					A (A > 8)
CC(C)NC[C@H](O)c1cccc(C(F)(F)F)n1 [Compound 03-35]	< 0.01 µM	< 0.01 µM	0.01 to 0.1 µM	0.01 to 0.1 µM	0.01 to 0.1 µM	> 1 µM					
CC(C)(C)NC[C@H](O)c1cccc(OC(F)(F)F)n1 [Compound 03-37]	0.01 to 0.1 µM	0.01 to 0.1 µM	< 0.01 µM	< 0.01 µM	< 0.01 µM	0.1 to 1 µM					
CC(C)(C)NC[C@H](O)c1cncc(C(F)(F)F)n1 [Compound 03-38]		0.1 to 1 µM	0.01 to 0.1 µM	0.01 to 0.1 µM		> 1 µM	C (C = <7-6)	0.1 to 1 µM		> 1 µM	C (C = <7-6)
CC(C)(C)NC[C@H](O)c1cccc(C(F)F)n1 [Compound 03-44]	0.01 to 0.1 µM	0.01 to 0.1 µM	0.01 to 0.1 µM	0.01 to 0.1 µM			C (C = <7-6)	0.1 to 1 µM	D (D < 6)	> 1 µM	
CC(C)(C)NC[C@H](O)c1ccnc(C(F)(F)F)n1 [Compound 03-45]	0.01 to 0.1 µM	0.01 to 0.1 µM	0.1 to 1 µM	0.1 to 1 µM				< 0.01 µM		< 0.01 µM	
[2H]C([2H])([2H])C(NCC(O)c1cccc(C(F)(F)F)n1)(C([2H])([2H])[2H])C([2H])([2H])[2H] (centres unmarked) [Compound 03-49]	> 1 µM	> 1 µM		0.1 to 1 µM				> 1 µM		> 1 µM	
CCc1ncccc1[C@@H](O)CNC(C)(C)C [Compound 03-52]	> 1 µM		0.1 to 1 µM		> 1 µM	> 1 µM					
CC(C)(C)NC[C@H](O)c1cccnc1C1CCCC1 [Compound 03-53]		> 1 µM	0.01 to 0.1 µM	0.01 to 0.1 µM		> 1 µM	C (C = <7-6)	0.1 to 1 µM		> 1 µM	D (D < 6)
CC(C)Oc1ncccc1[C@@H](O)CNC(C)(C)C [Compound 03-57]		0.1 to 1 µM	0.01 to 0.1 µM	0.01 to 0.1 µM		> 1 µM	C (C = <7-6)	0.1 to 1 µM		> 1 µM	C (C = <7-6)
CCOc1ncccc1[C@@H](O)CNC(C)(C)C [Compound 03-58]	0.01 to 0.1 µM	0.01 to 0.1 µM	0.01 to 0.1 µM	0.01 to 0.1 µM			B (B = 8-7)	0.01 to 0.1 µM	D (D < 6)	> 1 µM	
COc1ncccc1[C@@H](O)CNC(C)(C)C [Compound 03-59]	< 0.01 µM	< 0.01 µM	< 0.01 µM	< 0.01 µM			A (A > 8)	< 0.01 µM	C (C = <7-6)	0.1 to 1 µM	
CC(C)(C)NC[C@H](O)c1ccc(C(F)(F)F)cn1 [Compound 03-126]	0.01 to 0.1 µM	0.01 to 0.1 µM	0.01 to 0.1 µM	0.01 to 0.1 µM	0.01 to 0.1 µM	0.1 to 1 µM					
Cc1ccc([C@@H](O)CNC(C)(C)C)nc1 [Compound 03-127]	0.01 to 0.1 µM	0.01 to 0.1 µM	0.01 to 0.1 µM	0.01 to 0.1 µM	0.01 to 0.1 µM	> 1 µM					
CNc1cccc([C@@H](O)CNC(C)(C)C)n1 [Compound 03-141]	0.01 to 0.1 µM	0.1 to 1 µM	< 0.01 µM	< 0.01 µM	0.01 to 0.1 µM	> 1 µM					
CC(C)(C)NC[C@H](O)c1cccc(C2CCC2)n1 [Compound 03-161]		< 0.01 µM	< 0.01 µM	< 0.01 µM	< 0.01 µM	0.1 to 1 µM					A (A > 8)
Cc1ccc([C@@H](O)CNC(C)(C)C)nc1C(F)(F)F [Compound 03-167]	< 0.01 µM	< 0.01 µM	< 0.01 µM	< 0.01 µM	< 0.01 µM	> 1 µM					
Cc1ccc([C@H](O)CNC(C)(C)C)nc1C(F)(F)F [Compound 03-168]	0.01 to 0.1 µM	0.01 to 0.1 µM	0.01 to 0.1 µM	0.01 to 0.1 µM	0.1 to 1 µM	0.1 to 1 µM					
CC(C)(C)NC[C@H](O)c1cccc(C(C)(F)F)n1 [Compound 03-169]		0.01 to 0.1 µM	< 0.01 µM	< 0.01 µM	0.1 to 1 µM	> 1 µM					B (B = 8-7)
CC(C)(C)NC[C@H](O)c1cccc(N2CCCC2)n1 [Compound 03-173]	0.1 to 1 µM	0.1 to 1 µM	< 0.01 µM	< 0.01 µM	< 0.01 µM	> 1 µM					
CC(C)c1cccc([C@@H](O)CNC(C)(C)C)n1 [Compound 03-175]	0.01 to 0.1 µM	0.01 to 0.1 µM	< 0.01 µM	< 0.01 µM	< 0.01 µM	> 1 µM					
